Test results taken from paper PMC7041945, “Misfolded proteins bind and activate death receptor 5 to trigger apoptosis during unresolved endoplasmic reticulum stress” (eLife, 2020).

How the values were obtained:
GFP (340+341) = assay: qPCR of GFP transcript (expression of GFP-tagged construct); assay type: cell-based; conditions: Rep 2; for avg. fold induction GFP (340+341) / fold induction GFP (340+341): vs 24 hr cytoGFP (empty traffo)
[1] = system: caspase 8 in HCT116 lysates; assay: Caspase 8 activity (caspase glo 8) of cell lysates / IP inputs; assay type: cell-based, Homo sapiens; conditions: for average fold change relative to empty: HCT116, rep 1, average of 4 dilutions; for norm RLUs: normalized by lysate quant
Method in brief: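 HCT116 cells lysed in 30 mM HEPES pH 7.2, 150 mM NaCl, 1% Triton X-100 by needle shearing, 30 min on ice, cleared at 1000xg. Supernatant diluted 1:25-1:100 and incubated 45 min at RT with luminogenic caspase-8 substrate; luminescence read.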

GAPDH = assay: qPCR of GAPDH (reference transcript); assay type: cell-based; conditions: Rep 2; for avg. fold induction GAPDH / fold induction GAPDH: vs 24 hr cytoGFP (empty traffo)
HCT116 cells = assay: Annexin V (and SytoxBlue) flow cytometry for apoptosis; assay type: cell-based, Homo sapiens
Method in brief: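 HCT116 cells transfected with the specified plasmid for 24 hr, trypsinized and allowed 30 min recovery at 37°C. Stained with Annexin V-AlexaFluor 647 (1:20) for 15 min at RT in the dark; apoptotic cell distribution determined by flow cytometry.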

Substance: RHO-GFP: GFP-tagged rhodopsin expressed from plasmid
- 2^-(deltaCq) GFP (340+341) (GFP (340+341); 3 hr, replicate 1): 0.5385
- Cq GFP (340+341) (GFP (340+341); 3 hr, replicate 1): 20.6309
- Cq(sample) - avg Cq(GAPDH), GFP (340+341) (GFP (340+341); 3 hr, replicate 1): 0.893
- 2^-(deltaCq) GFP (340+341) (GFP (340+341); 3 hr, replicate 2): 0.6201
- Cq GFP (340+341) (GFP (340+341); 3 hr, replicate 2): 20.4274
- Cq(sample) - avg Cq(GAPDH), GFP (340+341) (GFP (340+341); 3 hr, replicate 2): 0.6895
- 2^-(deltaCq) GFP (340+341) (GFP (340+341); 3 hr, replicate 3): 0.5059
- Cq GFP (340+341) (GFP (340+341); 3 hr, replicate 3): 20.721
- Cq(sample) - avg Cq(GAPDH), GFP (340+341) (GFP (340+341); 3 hr, replicate 3): 0.9831
- avg. fold induction GFP (340+341) (GFP (340+341); 3 hr, mean of 3 replicates): 0.02018
- fold induction GFP (340+341) (GFP (340+341); 3 hr, replicate 1): 0.01959
- fold induction GFP (340+341) (GFP (340+341); 3 hr, replicate 2): 0.02256
- fold induction GFP (340+341) (GFP (340+341); 3 hr, replicate 3): 0.0184
- 2^-(deltaCq) GFP (340+341) (GFP (340+341); 7 hr, replicate 1): 2.306
- Cq GFP (340+341) (GFP (340+341); 7 hr, replicate 1): 18.4525
- Cq(sample) - avg Cq(GAPDH), GFP (340+341) (GFP (340+341); 7 hr, replicate 1): -1.205
- 2^-(deltaCq) GFP (340+341) (GFP (340+341); 7 hr, replicate 2): 2.483
- Cq GFP (340+341) (GFP (340+341); 7 hr, replicate 2): 18.3457
- Cq(sample) - avg Cq(GAPDH), GFP (340+341) (GFP (340+341); 7 hr, replicate 2): -1.312
- 2^-(deltaCq) GFP (340+341) (GFP (340+341); 7 hr, replicate 3): 2.811
- Cq GFP (340+341) (GFP (340+341); 7 hr, replicate 3): 18.1671
- Cq(sample) - avg Cq(GAPDH), GFP (340+341) (GFP (340+341); 7 hr, replicate 3): -1.4909
- avg. fold induction GFP (340+341) (GFP (340+341); 7 hr, mean of 3 replicates): 0.09215
- fold induction GFP (340+341) (GFP (340+341); 7 hr, replicate 1): 0.08389
- fold induction GFP (340+341) (GFP (340+341); 7 hr, replicate 2): 0.09033
- fold induction GFP (340+341) (GFP (340+341); 7 hr, replicate 3): 0.1022
- avg. 2^-(deltaCq) GFP (340+341) (GFP (340+341); 24 hr, mean of 3 replicates): 71.8905
- 2^-(deltaCq) GFP (340+341) (GFP (340+341); 24 hr, replicate 1): 62.5314
- Cq GFP (340+341) (GFP (340+341); 24 hr, replicate 1): 13.0515
- Cq(sample) - avg Cq(GAPDH), GFP (340+341) (GFP (340+341); 24 hr, replicate 1): -5.967
- 2^-(deltaCq) GFP (340+341) (GFP (340+341); 24 hr, replicate 2): 61.8163
- Cq GFP (340+341) (GFP (340+341); 24 hr, replicate 2): 13.0681
- Cq(sample) - avg Cq(GAPDH), GFP (340+341) (GFP (340+341); 24 hr, replicate 2): -5.95
- 2^-(deltaCq) GFP (340+341) (GFP (340+341); 24 hr, replicate 3): 91.3236
- Cq GFP (340+341) (GFP (340+341); 24 hr, replicate 3): 12.5051
- Cq(sample) - avg Cq(GAPDH), GFP (340+341) (GFP (340+341); 24 hr, replicate 3): -6.513
- avg. fold induction GFP (340+341) (GFP (340+341); 24 hr, mean of 3 replicates): 2.615
- fold induction GFP (340+341) (GFP (340+341); 24 hr, replicate 1): 2.275
- fold induction GFP (340+341) (GFP (340+341); 24 hr, replicate 2): 2.2486
- fold induction GFP (340+341) (GFP (340+341); 24 hr, replicate 3): 3.322
- average fold change relative to empty ([1]; siDR5): 1.375 fold change
- average fold change relative to empty ([1]; siNT): 3.026 fold change
- fold change in caspase 8 activity relative to GFP ([1]; input lysates GFP vs INS vs RHO, Rep1): 3.178 fold
- fold change in caspase 8 activity relative to GFP ([1]; input lysates GFP vs INS vs RHO, Rep2): 3.026 fold
- avg fold change in caspase 8 activity relative to GFP ([1]; input lysates GFP vs INS vs RHO, average of Rep1 and Rep2): 3.102 fold
- Mean ± SEM (lysate inputs) ([1]; lysate inputs, relative to GFP, n=2): 3.102 ± 0.07579, n=2
- average fold change relative to GFP ([1]; rep 2, average of 3 dilutions): 3.178 fold change
- norm RLUs ([1]; rep 2, dilution 0.025): 2013.77 RLUs
- norm RLUs ([1]; rep 2, dilution 0.05): 4641.15 RLUs
- norm RLUs ([1]; rep 2, dilution 0.1): 10576.5 RLUs
- 95% confidence interval of difference (lysate inputs) ([1]; vs. GFP): 1.776 to 2.428
- Difference between means (lysate inputs) ([1]; vs. GFP): 2.102 ± 0.07579
- Cq GAPDH (GAPDH; 3 hr, mean of 3 replicates): 19.7379
- 2^-(deltaCq) GAPDH (GAPDH; 3 hr, replicate 1): 0.8551
- Cq GAPDH (GAPDH; 3 hr, replicate 1): 19.9638
- Cq(sample) - avg Cq(GAPDH), GAPDH (GAPDH; 3 hr, replicate 1): 0.2259
- 2^-(deltaCq) GAPDH (GAPDH; 3 hr, replicate 2): 1.128
- Cq GAPDH (GAPDH; 3 hr, replicate 2): 19.5639
- Cq(sample) - avg Cq(GAPDH), GAPDH (GAPDH; 3 hr, replicate 2): -0.174
- 2^-(deltaCq) GAPDH (GAPDH; 3 hr, replicate 3): 1.0366
- Cq GAPDH (GAPDH; 3 hr, replicate 3): 19.686
- Cq(sample) - avg Cq(GAPDH), GAPDH (GAPDH; 3 hr, replicate 3): -0.05187
- avg. fold induction GAPDH (GAPDH; 3 hr, mean of 3 replicates): 1.004
- fold induction GAPDH (GAPDH; 3 hr, replicate 1): 0.8525
- fold induction GAPDH (GAPDH; 3 hr, replicate 2): 1.125
- fold induction GAPDH (GAPDH; 3 hr, replicate 3): 1.034
- Cq GAPDH (GAPDH; 7 hr, mean of 3 replicates): 19.658
- 2^-(deltaCq) GAPDH (GAPDH; 7 hr, replicate 1): 0.7732
- Cq GAPDH (GAPDH; 7 hr, replicate 1): 20.029
- Cq(sample) - avg Cq(GAPDH), GAPDH (GAPDH; 7 hr, replicate 1): 0.371
- 2^-(deltaCq) GAPDH (GAPDH; 7 hr, replicate 2): 1.046
- Cq GAPDH (GAPDH; 7 hr, replicate 2): 19.5931
- Cq(sample) - avg Cq(GAPDH), GAPDH (GAPDH; 7 hr, replicate 2): -0.06483
- 2^-(deltaCq) GAPDH (GAPDH; 7 hr, replicate 3): 1.236
- Cq GAPDH (GAPDH; 7 hr, replicate 3): 19.3518
- Cq(sample) - avg Cq(GAPDH), GAPDH (GAPDH; 7 hr, replicate 3): -0.3062
- avg. fold induction GAPDH (GAPDH; 7 hr, mean of 3 replicates): 1.016
- fold induction GAPDH (GAPDH; 7 hr, replicate 1): 0.7709
- fold induction GAPDH (GAPDH; 7 hr, replicate 2): 1.043
- fold induction GAPDH (GAPDH; 7 hr, replicate 3): 1.233
- Cq GAPDH (GAPDH; 24 hr, mean of 3 replicates): 19.018
- 2^-(deltaCq) GAPDH (GAPDH; 24 hr, replicate 1): 0.8063
- Cq GAPDH (GAPDH; 24 hr, replicate 1): 19.3286
- Cq(sample) - avg Cq(GAPDH), GAPDH (GAPDH; 24 hr, replicate 1): 0.3107
- 2^-(deltaCq) GAPDH (GAPDH; 24 hr, replicate 2): 1.066
- Cq GAPDH (GAPDH; 24 hr, replicate 2): 18.9252
- Cq(sample) - avg Cq(GAPDH), GAPDH (GAPDH; 24 hr, replicate 2): -0.09277
- 2^-(deltaCq) GAPDH (GAPDH; 24 hr, replicate 3): 1.163
- Cq GAPDH (GAPDH; 24 hr, replicate 3): 18.8001
- Cq(sample) - avg Cq(GAPDH), GAPDH (GAPDH; 24 hr, replicate 3): -0.2179
- avg. fold induction GAPDH (GAPDH; 24 hr, mean of 3 replicates): 1.009
- fold induction GAPDH (GAPDH; 24 hr, replicate 1): 0.8039
- fold induction GAPDH (GAPDH; 24 hr, replicate 2): 1.063
- fold induction GAPDH (GAPDH; 24 hr, replicate 3): 1.16
- PARP cleavage and annexin V staining (HCT116 cells; HCT116, transfected 24 hr, Nt or DR5 siRNA): induced PARP cleavage and annexin V staining in a DR5-dependent manner
- Mean ± SEM (siDR5), Annexin V (HCT116 cells; siDR5, N=3): 19 ± 0.033 N=3
- 95% confidence interval of difference, Annexin V (HCT116 cells; siDR5 vs. siNt): -22 to -5.1
- Difference between means, Annexin V (HCT116 cells; siDR5 vs. siNt): -13 ± 3.0
- Mean ± SEM (siNt), Annexin V (HCT116 cells; siNt, N=3): 33 ± 3.0 N=3
